Source: patent US7446079B2, “Perfumes for rinse-off systems” (Givaudan Fragrances Corporation, priority 2005, dated 2008)
Values joined by “and” are separate entries in the source; they are usually repeats but may differ in a detail not shown here. Identical values can stand only once. Like-named read-outs stand apart in the source and are kept apart here.

Legend:
[1] = in water, cited from earlier work; for exp ODT (ppb) water: experimental values from the Booleans database
[2] = GC-MS headspace release profile of Tropical Fruit perfume in shampoo, 1/100 dilution in water; type: physicochemical
Method: A 10 gram sample of formulation and fragrance was added to an empty 1000 ml pyrex beaker. This beaker was then filled with 1000 ml of 120 F tap water. Beaker with diluted shampoo sample was then immediately placed into a semi-enclosed plexiglass chamber.
Headspace Sampling: Once beaker was placed into chamber a Carboxan SPME field fiber was held at the top-side opening of the chamber over the beaker containing the sample. […] […] Top of plexiglass chamber was held open for entire 5 minutes of headspace sampling.

| GC Abundance ([2]; headspace at 30 seconds) | GC Abundance ([2]; headspace at 40 seconds) | GC Abundance ([2]; headspace at 50 seconds) | GC Abundance ([2]; headspace at 20 seconds) | GC Abundance ([2]; headspace at 10 seconds) | Compound | ODT (ppb) ([1]; Table 9) | ODT (ppb) ([1]; Table 11) | ODT (ppb) ([1]; Table 13) | exp ODT (ppb) water [1] |
| --- | --- | --- | --- | --- | --- | --- | --- | --- | --- |
| – | – | – | – | – | CCCCCCOC(C)=O [HEXYL ACETATE] | less than 50 ppb | less than 50 ppb | less than 50 ppb | – |
| – | – | – | – | – | CC(=O)C=CC1C(C)=CCCC1(C)C (stereo not drawn) [alpha ionone, 4-(2,2,6-Trimethyl-2-cyclohexen-1-yl)-3-buten-2-one] | – | – | – | 0.4-10 ppb |
| 2000 | 10000 | 18000 | – | – | CC(=O)C=CC1=C(C)CCCC1(C)C [IONONE BETA PURE, 4-(2,6,6-Trimethyl-1-cyclohexen-1-yl)-3-buten-2-one] | less than 50 ppb | less than 50 ppb | less than 50 ppb | 4-6 ppb |
| – | – | – | – | – | CC(=O)OC/C=C(/C)CCC=C(C)C [NERYL ACETATE] | less than 50 ppb | less than 50 ppb | less than 50 ppb | – |
| – | – | – | – | – | CC(C)(O)CCCC1=CCC(C=O)CC1 (stereo not drawn) [LYRAL] | – | – | less than 50 ppb | – |
| – | – | – | – | – | CCC(=O)OC/C=C(\C)CCC=C(C)C [trans-3,7-Dimethyl-2,6-octadien-1-yl propanoate] | – | – | – | 10 ppb |
| – | – | – | – | – | CCCCCOC(C)=O [Pentyl Acetate] | – | – | – | 43 ppb |
| – | – | – | – | – | CCOC(=O)C1OC1(C)c1ccccc1 (stereo not drawn) [Ethyl 2,3-epoxy-3-methyl-3-phenylpropionate] | – | – | – | 25 ppb |
| – | – | – | – | – | CCOC(=O)CC(C)=O [ETHYL ACETOACETATE] | less than 50 ppb | less than 50 ppb | less than 50 ppb | – |
| 14000 | 14000 | 14000 | 5000 | – | CC/C=C\CCOC(C)=O [CIS-3-HEXENYL ACETATE] | less than 50 ppb | less than 50 ppb | less than 50 ppb | – |
| – | – | – | – | – | Cc1ccc(C(C)C)c(O)c1 [5-Methyl-2-isopropylphenol] | – | – | – | 400 ppb |
| – | 1000 | 5000 | – | – | CC=CC(=O)C1C(C)=CCCC1(C)C (stereo not drawn) [alpha-DAMASCONE, α-1-(2,6,6-Trimethyl-2-cyclohexen-1-yl)-2-buten-1-one] | – | – | – | 1.5 ppb |
| – | – | – | – | – | CC(C)=CCCC(C)C=O (stereo not drawn) [melonal, 2,6-Dimethyl-5-heptenal] | – | – | – | 16 ppb |
| – | 4000 | 7000 | – | – | CCCCCCC1CCC(=O)O1 (stereo not drawn) [GAMMA-DECALACTONE, 5-Hexyldihydro-2(3H)-furanone] | less than 50 ppb | less than 50 ppb | less than 50 ppb | – |
| – | – | – | – | – | C=C(C)C1CC=C(C)C(=O)C1 (stereo not drawn) [I-1-Methyl-4-isopropenyl-6-cyclohexen-2-one] | – | – | – | 50 ppb |
| – | – | – | – | – | CC1=CCC(/C=C\C(C)C(C)O)C1(C)C (stereo not drawn) [EBANOL] | less than 50 ppb | less than 50 ppb | less than 50 ppb | – |
| 18000 | 18000 | 18000 | 18000 | 500 | C=CC(C)(O)CCC=C(C)C (stereo not drawn) [LINALOOL] | less than 50 ppb | less than 50 ppb | less than 50 ppb | – |
| – | – | – | – | – | COc1cc(C=O)ccc1O [4-Hydroxy-3-methoxybenzaldehyde] | – | – | – | 25-58 ppb and 20-200 ppb |
| – | – | 1000 | – | – | CC=CC(=O)C1=C(C)C=CCC1(C)C [DAMASCENONE, 1-(2,6,6-Trimethylcyclohexa-1,3-dienyl)-2-buten-1-one] | – | – | – | 0.002 ppb |
| – | – | – | – | – | C=CCOC(=O)COC1CCCCC1 [CYCLOGALBANATE] | less than 50 ppb | less than 50 ppb | less than 50 ppb | – |
| – | – | 4000 | – | – | CCCCCC1C(=O)CCC1CC(=O)OC (stereo not drawn) [HEDIONE] | less than 50 ppb | less than 50 ppb | less than 50 ppb | – |

| GC Abundance ([2]; headspace at 30 seconds) | GC Abundance ([2]; headspace at 40 seconds) | GC Abundance ([2]; headspace at 50 seconds) | GC Abundance ([2]; headspace at 20 seconds) | GC Abundance ([2]; headspace at 10 seconds) | Compound | ODT (ppb) ([1]; Table 9) | ODT (ppb) ([1]; Table 11) | ODT (ppb) ([1]; Table 13) | exp ODT (ppb) water [1] |
| --- | --- | --- | --- | --- | --- | --- | --- | --- | --- |
| – | – | – | – | – | CCCCOC(C)=O [Butyl acetate] | – | – | – | 44-88 ppb |
| – | – | – | – | – | C=CCOC(=O)CCCCC [ALLYL CAPROATE] | less than 50 ppb | less than 50 ppb | less than 50 ppb | – |
| – | – | – | – | – | CC(C)=CCCC(C)CC#N (stereo not drawn) [CITRONELLYL NITRILE] | less than 50 ppb | less than 50 ppb | less than 50 ppb | – |
| – | – | – | – | – | CCCCCCCC=O [1-Octanal] | – | – | – | 30 ppb |
| – | – | – | – | – | CC(C)C(=O)OCCOc1ccccc1 [PHENOXY ETHYL ISOBUTYRATE] | less than 50 ppb | less than 50 ppb | less than 50 ppb | – |
| – | – | – | – | – | CC/C=C\CCOC(=O)c1ccccc1O [CIS-3-HEXENYL SALICYLATE] | less than 50 ppb | less than 50 ppb | less than 50 ppb | – |
| 5000 | 5000 | 5000 | 3000 | – | CCOC(=O)CC1(C)OCCO1 [FRUCTONE] | less than 50 ppb | less than 50 ppb | less than 50 ppb | – |
| 3100 | 2000 | 1500 | 3100 | 3000 | CCOC(=O)C(C)CC (stereo not drawn) [Ethyl 2-methylbutyrate] | – | – | – | 0.1-0.3 ppb |
| – | 7000 | 10000 | – | – | C=CCOC(=O)CCC1CCCCC1 [ALLYL CYCLOHEXYL PROPIONATE] | less than 50 ppb | less than 50 ppb | less than 50 ppb | – |
| 14000 | 18000 | 20000 | 5000 | – | CC(=O)OC1CCCCC1C(C)(C)C (stereo not drawn) [VERDOX] | less than 50 ppb | less than 50 ppb | less than 50 ppb | – |
| 2800 | 2000 | 800 | 2800 | 2800 | CCCC(=O)OCC [ETHYL BUTYRATE] | less than 50 ppb | less than 50 ppb | less than 50 ppb | 1 ppb |
| – | 100 | 5000 | – | – | CC/C(=C\CC1CC=C(C)C1(C)C)CO (stereo not drawn) [BACDANOL] | – | – | – | – |
| 14000 | 14000 | 14000 | 10000 | – | CC(C)=CC1CC(C)CCO1 (stereo not drawn) [ROSE OXIDE (HIGH CIS), Tetrahydro-4-methyl-2-(2-methylpropen-1-yl)pyran] | – | – | – | 0.5 ppb |
| – | – | 2000 | – | – | CC1=CCC(CCC(C)C(C)O)C1(C)C (stereo not drawn) [SANDALORE] | – | – | – | – |
| – | – | – | – | – | CC=Cc1ccc(O)c(OC)c1 [1-Hydroxy-2-methoxy-4-propenylbenzene] | – | – | – | 30-40 ppb |
| – | 2000 | 9000 | – | – | CCCCCCC(C=O)=Cc1ccccc1 [HEXYL CINNAMIC ALDEHYDE] | – | – | less than 50 ppb | – |
| – | – | – | – | – | CCCCCOC(=O)CCC [Pentyl butyrate] | – | – | – | 44-87 ppb |
| – | – | – | – | – | CC(C=O)Cc1ccc(C(C)(C)C)cc1 (stereo not drawn) [LILIAL] | less than 50 ppb | less than 50 ppb | less than 50 ppb | – |
| 14000 | 10000 | 6000 | 14000 | 1000 | CC1=CC(C)C(C=O)CC1 (stereo not drawn) [TRIPLAL] | less than 50 ppb | less than 50 ppb | less than 50 ppb | – |
| 4000 | 3000 | 1500 | 4000 | 1000 | CCCC(C)C(=O)OCC (stereo not drawn) [MANZANATE, Ethyl 2-methylpentanoate] | – | – | – | 0.0030 ppb |
